The values below come from patent US20170152239A1, “BENZAMIDE AND HETEROBENZAMIDE COMPOUNDS” (PFIZER INC., priority 2012, published 2017).

SMILES strings stand for the structures.

WT EZH2 (EZH2 4 protein complex: EZH2, EED, SUZ12, RbAp48), sequence (Q15910 whole entry): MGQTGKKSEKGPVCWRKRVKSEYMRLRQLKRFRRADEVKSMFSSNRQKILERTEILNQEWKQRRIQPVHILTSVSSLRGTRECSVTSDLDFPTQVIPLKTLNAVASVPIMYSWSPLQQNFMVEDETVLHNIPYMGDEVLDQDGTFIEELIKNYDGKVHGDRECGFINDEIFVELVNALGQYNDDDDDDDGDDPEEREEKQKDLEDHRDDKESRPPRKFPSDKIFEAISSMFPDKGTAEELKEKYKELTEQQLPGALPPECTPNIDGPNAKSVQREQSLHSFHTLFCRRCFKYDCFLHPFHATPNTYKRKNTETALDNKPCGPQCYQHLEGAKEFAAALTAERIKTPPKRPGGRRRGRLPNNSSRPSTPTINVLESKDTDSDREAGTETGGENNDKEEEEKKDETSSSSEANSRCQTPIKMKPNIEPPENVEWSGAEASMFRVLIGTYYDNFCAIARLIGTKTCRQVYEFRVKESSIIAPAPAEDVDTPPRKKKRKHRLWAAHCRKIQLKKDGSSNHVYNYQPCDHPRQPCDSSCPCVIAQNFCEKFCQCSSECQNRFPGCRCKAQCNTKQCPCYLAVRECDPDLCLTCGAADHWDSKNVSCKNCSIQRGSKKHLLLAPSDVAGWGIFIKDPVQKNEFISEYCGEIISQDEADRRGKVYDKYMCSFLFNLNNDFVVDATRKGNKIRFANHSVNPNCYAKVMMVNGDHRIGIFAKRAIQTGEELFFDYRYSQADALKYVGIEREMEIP
WT EZH2 (EZH2 4 protein complex: EZH2, EED, SUZ12, RbAp48), sequence (O75530 whole entry partner): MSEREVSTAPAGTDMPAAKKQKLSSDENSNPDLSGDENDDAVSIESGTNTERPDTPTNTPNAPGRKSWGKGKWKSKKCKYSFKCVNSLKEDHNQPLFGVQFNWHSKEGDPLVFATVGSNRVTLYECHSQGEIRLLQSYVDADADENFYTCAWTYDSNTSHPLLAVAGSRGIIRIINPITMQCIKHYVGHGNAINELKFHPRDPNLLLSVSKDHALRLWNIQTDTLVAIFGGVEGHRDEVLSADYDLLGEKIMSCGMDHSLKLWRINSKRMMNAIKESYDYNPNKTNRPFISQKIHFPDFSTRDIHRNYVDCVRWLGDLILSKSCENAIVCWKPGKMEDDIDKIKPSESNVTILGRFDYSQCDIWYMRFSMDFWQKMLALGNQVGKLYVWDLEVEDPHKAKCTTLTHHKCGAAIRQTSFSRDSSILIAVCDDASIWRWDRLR
WT EZH2 (EZH2 4 protein complex: EZH2, EED, SUZ12, RbAp48), sequence (Q15022 whole entry partner): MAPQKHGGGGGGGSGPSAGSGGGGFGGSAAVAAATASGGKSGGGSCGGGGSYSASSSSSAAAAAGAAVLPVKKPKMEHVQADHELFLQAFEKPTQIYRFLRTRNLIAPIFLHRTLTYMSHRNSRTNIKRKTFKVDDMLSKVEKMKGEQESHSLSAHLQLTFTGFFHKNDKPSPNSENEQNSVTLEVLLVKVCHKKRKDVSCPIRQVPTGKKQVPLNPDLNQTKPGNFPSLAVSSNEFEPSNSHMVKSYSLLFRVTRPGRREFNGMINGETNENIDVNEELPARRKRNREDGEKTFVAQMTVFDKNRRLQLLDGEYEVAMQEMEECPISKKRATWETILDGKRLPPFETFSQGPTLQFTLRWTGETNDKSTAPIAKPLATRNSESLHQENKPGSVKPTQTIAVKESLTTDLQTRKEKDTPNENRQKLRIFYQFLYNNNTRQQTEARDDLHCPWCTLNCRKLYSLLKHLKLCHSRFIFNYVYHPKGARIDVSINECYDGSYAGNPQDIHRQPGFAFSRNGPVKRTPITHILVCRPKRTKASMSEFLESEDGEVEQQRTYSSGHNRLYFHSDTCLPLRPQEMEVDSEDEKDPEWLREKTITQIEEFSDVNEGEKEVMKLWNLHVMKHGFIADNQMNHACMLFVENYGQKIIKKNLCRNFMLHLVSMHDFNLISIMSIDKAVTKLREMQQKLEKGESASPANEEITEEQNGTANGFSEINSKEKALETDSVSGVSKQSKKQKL
WT EZH2 (EZH2 4 protein complex: EZH2, EED, SUZ12, RbAp48), sequence (Q09028 whole entry partner): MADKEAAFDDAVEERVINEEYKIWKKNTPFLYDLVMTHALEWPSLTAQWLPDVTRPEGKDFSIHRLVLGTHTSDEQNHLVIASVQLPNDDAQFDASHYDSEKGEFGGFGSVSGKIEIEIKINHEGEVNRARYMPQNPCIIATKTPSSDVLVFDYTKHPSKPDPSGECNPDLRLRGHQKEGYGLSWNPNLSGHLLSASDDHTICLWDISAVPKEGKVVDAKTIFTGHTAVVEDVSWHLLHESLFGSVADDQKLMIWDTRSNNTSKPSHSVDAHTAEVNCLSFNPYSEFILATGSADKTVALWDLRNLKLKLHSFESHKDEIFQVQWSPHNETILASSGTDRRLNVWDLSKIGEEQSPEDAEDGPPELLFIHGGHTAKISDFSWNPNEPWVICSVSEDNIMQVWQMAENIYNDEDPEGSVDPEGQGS

In the assay the target is WT EZH2 (EZH2 4 protein complex: EZH2, EED, SUZ12, RbAp48) (Homo sapiens, UniProt O75530+Q09028+Q15022+Q15910). Kind of assay: WT EZH2 nucleosome assay. In kind it is biochemical. Particulars: nucleosome assay, 5 nM EZH2 4-protein complex, 1.5 μM SAM; read-out: WT EZH2 IC50. Here is the method:
Nucleosome Assay Protocol:
A. Compound preparation • 1. Prepare 10 mM stock solutions in 100% DMSO from solid material • 2. Serial dilute 10 mM compound stocks either 2 or 3-fold in 100% DMSO to generate compounds for 11 point dose response
B. Reagent preparation • 1. Prepare 1× assay buffer containing 100 mM Tris pH 8.5, 4 mM DTT and 0.01% Tween-20 • 2. Dilute purified HeLA oligonucleosomes and recombinant histone H1 (New England Biolabs) in assay buffer to 1.67×. • 3. Dilute EZH2 4 protein complex (EZH2, EED, SUZ12, RbAp48) to 3.5× in assay buffer • 4. Prepare 10×^3H SAM solution in assay buffer using 0.94 μCi/well of radioactive SAM (Perkin Elmer) and sufficient non-labeled SAM (Sigma) for 1.5 μM final concentration. • 5. Dilute TCA to 20% in DI water
C. Enzyme reaction • 1. Final reaction conditions are 5 nM EZH2 4-protein complex, 1.5 μM SAM, 25 μg/mL oligonucleosomes, 50 nM rH1 in a 50 μl reaction volume. • 2. Add 1 μl of diluted compound to the assay plate (96-well V-bottom polypropylene plates) or 1 μl of DMSO for control wells. • 3. Add 30 μl of nucleosomes to the assay plate • 4. Add 14 μl of EZH2 4 protein complex to the assay plate • 5. Add 5 μl of ^3H SAM to start the reaction. • 6. Stop the reaction after 60 minutes with the addition of 100 μl of 20% TCA • 7. Transfer 150 μl of quenched reaction into a prepared filterplate (Millipore #MSIPN4B10) • 8. Apply vacuum to the filterplate to filter the reaction mix through the membrane. • 9. Wash the filterplate with 8×200 μl of PBS, blot dry and dry in an oven for 30 minutes • 10. Add 50 μl of microscint-20 scintillation fluid (Perkin Elmer) to each well, wait 30 minutes and count on a liquid scintillation counter.
D. Data analysis • 1. IC50 values were determined by fitting the data to a 4-parameter IC50 equation using proprietary curve fitting software.
Wild type (WT) EZH2% Effect at 20 μM and IC50 values (μM) generated in WT EZH2 or EZH2PRC2 mutant Y641N nucleosome assays are provided in Table 3 below. A blank entry in the table indicates the data was not generated in that assay.
Turning to `Cc1cc(C)c(CNC(=O)c2cccc(-c3c(C#N)cnn3C)c2C)c(=O)[nH]1` [Example 76, 3-(4-cyano-1-methyl-1H-pyrazol-5-yl)-N-[(4,6-dimethyl-2-oxo-1,2-dihydropyridin-3-yl)methyl]-2-methylbenz-amide], the IC50 came out at 6.94 µM.

Consider `Cc1cc(C)c(CNC(=O)c2cccc(-c3c(C)ncn3C)c2C)c(=O)[nH]1` [Example 4, 3-(1,4-dimethyl-1H-imidazol-5-yl)-N-[(4,6-dimethyl-2-oxo-1,2-dihydropyridin-3-yl)methyl]-2-methylbenzamide], for which the 50% inhibitory concentration (IC50) came out at 0.23 µM.

For the molecule `Cc1cc(C)c(CNC(=O)c2ncnc(N3CCC[C@@H]3c3ccccn3)c2C)c(=O)[nH]1` [Example 144, N-[(4,6-dimethyl-2-oxo-1,2-dihydropyridin-3-yl)methyl]-5-methyl-6-[(2R)-2-pyridin-2-ylpyrrolidin-1-yl]pyrimidine-4-carboxamide], the half-maximal inhibitory concentration (IC50) was more than 200 µM.

For the molecule `Cc1cc(C(F)(F)F)[nH]c(=O)c1CNC(=O)c1cc(Cl)cc(-c2ccnn2C)c1C` [Example 142, 5-chloro-2-methyl-N-{[4-methyl-2-oxo-6-(trifluoromethyl)-1,2-dihydropyridin-3-yl]methyl}-3-(1-methyl-1H-pyrazol-5-yl)benzamide], the IC50 is more than 200 µM.

Turning to `Cc1cc(C)c(CNC(=O)c2cccc(-c3c(C)n[nH]c3C)c2C)c(=O)[nH]1` [Example 3, N-[(4,6-dimethyl-2-oxo-1,2-dihydropyridin-3-yl)methyl]-3-(3,5-dimethyl-1H-pyrazol-4-yl)-2-methylbenzamide], the concentration for half-maximal inhibition (IC50) amounted to 0.92 µM.

With `Cc1cc(C)c(CNC(=O)c2nc(N3CCC(N)CC3)nc(-c3ccnn3C)c2C)c(=O)[nH]1` [Example 43, 2-(4-aminopiperidin-1-yl)-N-[(4,6-dimethyl-2-oxo-1,2-dihydropyridin-3-yl)methyl]-5-methyl-6-(1-methyl-1H-pyrazol-5-yl)pyrimidine-4-carboxamide], the half-inhibitory concentration (IC50) worked out at 1.34 µM.

In the case of `Cc1cc(C)c(CNC(=O)c2cc(Cl)cc(-n3c(C)cnc3C)c2C)c(=O)[nH]1` [Example 28, 5-chloro-3-(2,5-dimethyl-1H-imidazol-1-yl)-N-[(4,6-dimethyl-2-oxo-1,2-dihydropyridin-3-yl)methyl]-2-methylbenzamide], the IC50 amounted to 0.26 µM.

For the molecule `Cc1cc(C)c(CNC(=O)c2nc(-c3cncnc3)nc(-c3ccnn3C)c2C)c(=O)[nH]1` [Example 80, N-[(4,6-dimethyl-2-oxo-1,2-dihydropyridin-3-yl)methyl]-5-methyl-6-(1-methyl-1H pyrazol-5-yl)-2,5′-bipyrimidine-4-carboxamide], the IC50 was determined as 7.53 µM.

As for `Cc1cc(C)c(CNC(=O)c2cc(Cl)cc(-n3ccnc3C)c2C)c(=O)[nH]1` [Example 29, 5-chloro-N-[(4,6-dimethyl-2-oxo-1,2-dihydropyridin-3-yl)methyl]-2-methyl-3-(2-methyl-1H-imidazol-1-yl)benzamide], the half-maximal inhibitory concentration (IC50) worked out at 0.71 µM.

In the case of `COc1ncc(-c2cc(C(=O)NCc3c(C)cc(C)[nH]c3=O)c(C)c(-c3c(C)cnn3C)c2)cn1` [Example 25, N-[(4,6-dimethyl-2-oxo-1,2-dihydropyridin-3-yl)methyl]-3-(1,4-dimethyl-1H-pyrazol-5-yl)-5-(2-methoxypyrimidin-5-yl)-2-methylbenzamide], the IC50 turned out to be 0.16 µM.

Consider `Cc1cc(C)c(CNC(=O)c2cc(F)cc(-c3c(C)cnn3C)c2C)c(=O)[nH]1` [Example 38, N-[(4,6-dimethyl-2-oxo-1,2-dihydropyridin-3-yl)methyl]-3-(1,4-dimethyl-1H-pyrazol-5-yl)-5-fluoro-2-methylbenz-amide], for which the IC50 is 0.71 µM.

In the case of `Cc1cc(C)c(CNC(=O)c2cc(Cl)cc(-n3ncnc3C)c2C)c(=O)[nH]1` [Example 49, 5-chloro-N-[(4,6-dimethyl-2-oxo-1,2-dihydropyridin-3-yl)methyl]-2-methyl-3-(5-methyl-1H-1,2,4-triazol-1-yl)benzamide], the IC50 amounted to 1.95 µM.

With `Cc1cc(C)c(CNC(=O)c2ccnc(OC(C)C)c2C)c(=O)[nH]1` [Example 87, N-[(4,6-dimethyl-2-oxo-1,2-dihydropyridin-3-yl)methyl]-2-isopropxy-3-methylisonico-tinamide], the concentration for half-maximal inhibition (IC50) turned out to be 9.76 µM.

For the molecule `Cc1cc(C)c(CNC(=O)c2nc(OC(C)C)nc(N3CCC[C@@H]3C)c2C)c(=O)[nH]1` [Example 57, N-[(4,6-dimethyl-2-oxo-1,2-dihydropyridin-3-yl)methyl]-2-isopropoxy-5-methyl-6-[(2S)-2 - methylpyrrolidin-1-yl]pyrimidine-4-carboxamide], the half-maximal inhibitory concentration (IC50) was 3.2 µM.

As for `Cc1cc(C)c(CNC(=O)c2nc(OCCN3CC(F)(F)C3)nc(-c3ccnn3C)c2C)c(=O)[nH]1` [Example 117, 2-[2-(3,3-difluoroazetidin-1-yl)ethoxy]-N-[(4,6-dimethyl-2-oxo-1,2-dihydropyridin-3-yl)methyl]-5-methyl-6-(1-methyl-1H-pyrazol-5-yl)pyrimidine-4-carboxamide], the IC50 came to 31.1 µM.

Turning to `Cc1cc(C)c(CNC(=O)c2cc(C3=CCOCC3)cc(-c3ccnn3C)c2C)c(=O)[nH]1` [Example 20, 5-(3,6-dihydro-2H-pyran-4-yl)-N-[(4,6-dimethyl-2-oxo-1,2-dihydropyridin-3-yl)methyl]-2-methyl-3-(1-methyl-1H-pyrazol-5-yl)benzamide], the 50% inhibitory concentration (IC50) turned out to be 0.19 µM.

Take `Cc1cc(C)c(CNC(=O)c2cc(Cl)cc(-n3c(C)nnc3C)c2C)c(=O)[nH]1` [Example 62, 5-chloro-N-[(4,6-dimethyl-2-oxo-1,2-dihydropyridin-3-yl)methyl]-3-(3,5-dimethyl-4H-1,2,4-triazol-4-yl)-2-methylbenz-amide]: the IC50 came to 4.22 µM.

With `Cc1cc(C)c(CNC(=O)c2nc(OCCO)nc(-c3ccnn3C)c2C)c(=O)[nH]1` [Example 90, N-[(4,6-dimethyl-2-oxo-1,2-dihydropyridin-3-yl)methyl]-2-(2-hydroxyethoxy)-5-methyl-6-(1-methyl-1H-pyrazol-5-yl)pyrimidine-4-carboxamide], the IC50 came to 12 µM.

For the molecule `COCC1CCN(c2ncnc(C(=O)NCc3c(C)cc(C)[nH]c3=O)c2C)C1` (stereo not shown) [Example 132, N-[(4,6-dimethyl-2-oxo-1,2-dihydropyridin-3-yl)methyl]-6-[3-(methoxymeth-yl)pyrrolidin-1-yl]-5-methylpyrimidine-4-carboxamide], the half-inhibitory concentration (IC50) was found to be 81.4 µM.

`CCC1CCCN1c1ncnc(C(=O)NCc2c(C)cc(C)[nH]c2=O)c1C` (stereo not shown) [Example 95, N-[(4,6-dimethyl-2-oxo-1,2-dihydropyridin-3-yl)methyl]-6-(2-ethylpyrrolidin-1-yl)-5-methylpyrimi-dine-4-carboxamide]: the 50% inhibitory concentration (IC50) was found to be 16.5 µM.

Take `Cc1cc(C)c(CNC(=O)c2nc(N3[C@@H]4CC[C@H]3COC4)nc(N3CCC[C@@H]3C)c2C)c(=O)[nH]1` [Example 55, N-[(4,6-dimethyl-2-oxo-1,2-dihydropyridin-3-yl)methyl]-5-methyl-6-[(2S)-2 - methylpyrrolidin-1-yl]-2-[(1R,5S)-3-oxa-8-azabicyclo[3.2.1]oct-8-yl]pyrimidine-4-carboxamide]: the IC50 turned out to be 2.89 µM.

`Cc1cc(C)c(CNC(=O)c2ncnc(N3CCC[C@@H]3CO)c2C)c(=O)[nH]1` [Example 133, N-[(4,6-dimethyl-2-oxo-1,2-dihydropyridin-3-yl)methyl]-6-[(2R)-2-(hydroxymeth-yl)pyrrolidin-1-yl]-5-methylpyrimidine-4-carboxamide]: the half-maximal inhibitory concentration (IC50) turned out to be 87.5 µM.
